The target of assay [1] is T1, sortase A (SrtA) (Staphylococcus aureus, UniProt Q2FV99). Kind of assay: SrtA binding kinetics, competition assay using W7-F as fluorescence reporter. On the procedure: FIG. 1 illustrates reversible covalent inhibition of SrtA. […] The peptide's termini and the proximal lysine residues are labeled with the lysine ε-amines colored blue. […] FIG. 1(d) and FIG. 1(e) show SrtA binding kinetics of P3 and P5 recorded via a competition assay using W7-F as a fluorescence reporter.
T1 sequence (Q2FV99 whole entry): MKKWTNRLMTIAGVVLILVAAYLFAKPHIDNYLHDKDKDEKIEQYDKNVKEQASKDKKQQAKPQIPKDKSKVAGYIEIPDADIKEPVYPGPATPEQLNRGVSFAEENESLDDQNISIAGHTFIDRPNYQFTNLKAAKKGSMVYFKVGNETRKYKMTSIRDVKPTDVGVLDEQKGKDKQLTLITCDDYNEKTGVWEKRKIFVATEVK
Kinetic characterization of the P5-SrtA binding yielded a kon of 6.3 M^−1 s^−1, which is ˜300 times faster than the RMR1-lysine conjugation. The koff was determined to be 8.2×10^−6 s^−1, 4 times slower than the RMR1-lysine conjugation. The faster on-rate and slower off-rate are expected for the cooperative action between the covalent warhead and the W7 peptide that binds SrtA noncovalently.

In assay [2] the target is T1, sortase A (SrtA). Kind of assay: biochemical. It counts as binding. On the procedure:
For peptide conjugation, a —COOH derivative of RMR1 and 2-APBA was synthesized respectively. […] The resulting peptides were assessed for SrtA binding through a fluorescence polarization-based competition assay, in which a fluorophore labeled W7 (W7-F) was used as a reporter.

Assay [3] has as its system SrtA on live S. aureus cells. Kind of assay: SrtA inhibition on live S. aureus cells, labeling by fluorescent SrtA substrate FAM-GSLPETGGS, flow cytometry. It counts as cell-based, Staphylococcus aureus. The settings on record: live S. aureus in LB media, read-out: IC50 of SrtA-mediated fluorescence labeling. On the procedure:
The peptides for SrtA inhibition on live S. aureus cells was further tested. A fluorescently labeled SrtA substrate (FAM-GSLPETGGS) was mixed with S. aureus in LB media with or without a peptide inhibitor. The SrtA-mediated bacterial labeling was assessed using fluorescence microscopy and flow cytometry.

In assay [4] the test system is SrtA on live S. aureus cells. Kind of assay: Long-lasting SrtA inhibition on S. aureus cells after washing away unbound inhibitor. Type of assay: cell-based, Staphylococcus aureus. The settings on record: unbound inhibitor washed away before substrate added, flow cytometry after 6 hours of incubation. On the procedure: To test this hypothesis, the S. aureus cells was treated with P5 and then the unbound inhibitor was washed away before the fluorescent SrtA substrate was added. The S. aureus cells were subjected to flow cytometry analysis after 6 hours of incubation.
Background: Flow cytometry measures light scatter and fluorescence of single cells or particles in a stream.

The values below come from patent publication US20240247252A1, “NOVEL COMPOUNDS FOR THE DEVELOPMENT OF REVERSIBLE COVALENT DRUGS” (The Trustees of Boston College, priority 2023, published 2024).

Positions of bridges follow the written chain, without caps; N, C: chain ends. Non-standard residues stand in square brackets, D forms with d. Residues, ends and D or L forms follow the SMILES beside them. *: point of attachment. X1 = O=Cc1ccccc1NCc1cc(C(=O)*)ccc1B(O)O; X2 = CC(=O)c1ccc(OCC(=O)*)cc1B(O)O; Dap = NC[C@H](N)C(=O)O

As a reminder, the IC50 is the concentration at which inhibition is half-maximal. A word on the koff: it is the first-order rate constant of dissociation. Lower therefore signals slow dissociation. Broadly, the kon is the second-order rate constant of association.

`CC[C@H](C)[C@@H]1NC(=O)[C@H](CC(C)C)NC(=O)[C@@H](NC(=O)[C@H](C)N)CSSC[C@@H](C(=O)NCC(=O)NCC(=O)NCC(=O)N[C@@H](CNC(=O)COc2ccc(C(C)=O)c(B(O)O)c2)C(N)=O)NC(=O)CNC(=O)CNC(=O)[C@H](Cc2c[nH]c3ccccc23)NC(=O)[C@H]([C@@H](C)O)NC(=O)[C@@H]2CCCN2C1=O` [Compound P3] (H-ACLIPTWGGCGGG[Dap](X2)-NH2; disulfide 2-10): on sortase A (SrtA) [1], the “SrtA binding kinetics in words” value was “reached equilibrium instantaneously”. Further, the figures for the IC50 (on sortase A (SrtA) [2]; in assay [3]) were 4.6 µM and 3.7 µM, respectively. The “inhibition of SrtA-mediated fluorescence labeling after washing” value in assay [4] is “marginal reduction”.

For the molecule `CC[C@H](C)[C@@H]1NC(=O)[C@H](CC(C)C)NC(=O)[C@@H](NC(=O)[C@H](C)NC(C)=O)CSSC[C@@H](C(=O)NCC(=O)NCC(=O)NCC(=O)N[C@@H](CNC(=O)c2ccc(B(O)O)c(CNc3ccccc3C=O)c2)C(N)=O)NC(=O)CNC(=O)CNC(=O)[C@H](Cc2c[nH]c3ccccc23)NC(=O)[C@H]([C@@H](C)O)NC(=O)[C@@H]2CCCN2C1=O` [Compound P5] (Ac-ACLIPTWGGCGGG[Dap](X1)-NH2; disulfide 2-10), on sortase A (SrtA) [1], the koff was 8.2e-06 s⁻¹; the “koff, times slower than the RMR1-lysine conjugation” value amounted to 4 times; the kon worked out at 6.3 M⁻¹ s⁻¹; the “kon, times faster than the RMR1-lysine conjugation” value is ~300 times. For the same molecule, the IC50 on sortase A (SrtA) [2] was 1.3 µM.

With `CC[C@H](C)[C@@H]1NC(=O)[C@H](CC(C)C)NC(=O)[C@@H](NC(=O)[C@H](C)NC(=O)CNC(=O)CNC(=O)CNC(=O)COc2ccc(C(C)=O)c(B(O)O)c2)CSSC[C@@H](C(N)=O)NC(=O)CNC(=O)CNC(=O)[C@H](Cc2c[nH]c3ccccc23)NC(=O)[C@H]([C@@H](C)O)NC(=O)[C@@H]2CCCN2C1=O` [Compound P7] (X2-GGGACLIPTWGGC-NH2; disulfide 5-13), 4.5 µM corresponded to half-maximal inhibition against sortase A (SrtA) [2] (IC50).

On sortase A (SrtA) [2], `CC[C@H](C)[C@@H]1NC(=O)[C@H](CC(C)C)NC(=O)[C@@H](NC(=O)[C@H](C)NC(=O)CNC(=O)CNC(=O)CNC(=O)c2ccc(B(O)O)c(CNc3ccccc3C=O)c2)CSSC[C@@H](C(N)=O)NC(=O)CNC(=O)CNC(=O)[C@H](Cc2c[nH]c3ccccc23)NC(=O)[C@H]([C@@H](C)O)NC(=O)[C@@H]2CCCN2C1=O` [Compound P8] (X1-GGGACLIPTWGGC-NH2; disulfide 5-13) yielded an IC50 of 3.8 µM.

As for `CC[C@H](C)[C@@H]1NC(=O)[C@H](CC(C)C)NC(=O)[C@@H](NC(=O)[C@H](C)N)CSSC[C@@H](C(N)=O)NC(=O)CNC(=O)CNC(=O)[C@H](Cc2c[nH]c3ccccc23)NC(=O)[C@H]([C@@H](C)O)NC(=O)[C@@H]2CCCN2C1=O` [Compound W7] (H-ACLIPTWGGC-NH2; disulfide 2-10), half-maximal inhibition against sortase A (SrtA) [2] (IC50) required 17 µM.
